Reference: ChEMBL document CHEMBL1921760, “Design, synthesis and biological evaluation of 6-pyridylmethylaminopurines as CDK inhibitors” (Bioorg Med Chem, 2011)
pIC50: −log10 of the molar value. The source made the active and inactive calls. The calls are words filed in the database; no cut-off is given here.

Tests used:
HCT-116 [1] = assay: Antitumor activity against human HCT116 cells xenografted in NCR athymic mouse assessed as growth delay at 50 mg/kg, po twice daily at 12 to 14 hrs intervals measured after 12 days relative to vehicle treated control; format: functional, organism-based; set-up: dose 50 mg/kg
HT-29 [2] = assay: Inhibition of CDK-mediated RB phosphorylation at Ser-780 in human HT29 cells at 0.1 to 20 uM after 24 hrs by Western blotting relative to control; format: cell-based
HT-29 [3] = assay: Reduction of RNA polymerase 2 expression in human HT-29 cells; format: functional, cell-based
HT-29 [4] = assay: Cell cycle arrest in human HT-29 cells assessed as reduction at S phase at 3.3 uM up to 16 hrs measuring distribution of bromodeoxyuridine incorporation by flow cytometry; format: functional, cell-based
HT-29 [5] = assay: Cell cycle arrest in human HT-29 cells assessed as accumulation at G2/M phase at 3.3 uM up to 16 hrs measuring distribution of bromodeoxyuridine incorporation by flow cytometry; format: functional, cell-based
[6] = target: Cyclin-dependent kinase 2/cyclin E1 (Homo sapiens, UniProt P24941); assay: Inhibition of CDK2/cyclin E; format: protein-complex assay
[7] = target: Cyclin-dependent kinase 1/cyclin B1 (Homo sapiens, UniProt P06493); assay: Inhibition of CDK1/cyclin B; format: protein-complex assay
Cyclin-dependent kinase 1/cyclin B1, sequence (P06493 whole entry): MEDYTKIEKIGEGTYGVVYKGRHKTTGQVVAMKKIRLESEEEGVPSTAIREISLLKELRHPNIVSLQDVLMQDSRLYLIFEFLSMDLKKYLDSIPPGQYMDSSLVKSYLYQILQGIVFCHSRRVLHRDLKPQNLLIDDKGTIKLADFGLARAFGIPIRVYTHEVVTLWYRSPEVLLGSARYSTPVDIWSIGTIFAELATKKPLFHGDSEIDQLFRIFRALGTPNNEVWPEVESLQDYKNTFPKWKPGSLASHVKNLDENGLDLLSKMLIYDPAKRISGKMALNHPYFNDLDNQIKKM
Cyclin-dependent kinase 1/cyclin B1, sequence (P14635 whole entry, further chain): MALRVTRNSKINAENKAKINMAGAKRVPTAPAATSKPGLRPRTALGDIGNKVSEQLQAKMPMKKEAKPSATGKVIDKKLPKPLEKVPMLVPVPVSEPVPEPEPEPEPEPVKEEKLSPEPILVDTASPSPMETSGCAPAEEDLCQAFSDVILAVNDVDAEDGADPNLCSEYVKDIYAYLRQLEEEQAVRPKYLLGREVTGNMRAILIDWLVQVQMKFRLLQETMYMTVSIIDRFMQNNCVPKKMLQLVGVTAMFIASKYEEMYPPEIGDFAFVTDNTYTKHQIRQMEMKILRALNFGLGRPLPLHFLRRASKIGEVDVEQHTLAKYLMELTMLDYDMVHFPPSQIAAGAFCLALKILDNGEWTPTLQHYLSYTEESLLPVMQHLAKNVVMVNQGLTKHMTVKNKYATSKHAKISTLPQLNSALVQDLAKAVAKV

[8] = target: Cyclin-dependent kinase 4/cyclin D1 (Homo sapiens, UniProt P11802); assay: Inhibition of CDK4/cyclin D1; format: protein-complex assay
Cyclin-dependent kinase 4/cyclin D1, sequence (P11802 whole entry): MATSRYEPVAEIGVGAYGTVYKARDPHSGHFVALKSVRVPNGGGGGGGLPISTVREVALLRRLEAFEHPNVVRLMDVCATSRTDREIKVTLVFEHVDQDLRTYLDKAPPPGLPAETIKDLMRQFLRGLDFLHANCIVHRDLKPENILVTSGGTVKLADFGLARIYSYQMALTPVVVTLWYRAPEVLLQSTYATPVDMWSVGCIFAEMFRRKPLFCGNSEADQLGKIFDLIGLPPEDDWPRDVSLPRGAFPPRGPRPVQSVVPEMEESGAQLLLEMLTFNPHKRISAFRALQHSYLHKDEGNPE
Cyclin-dependent kinase 4/cyclin D1, sequence (P24385 whole entry, further chain): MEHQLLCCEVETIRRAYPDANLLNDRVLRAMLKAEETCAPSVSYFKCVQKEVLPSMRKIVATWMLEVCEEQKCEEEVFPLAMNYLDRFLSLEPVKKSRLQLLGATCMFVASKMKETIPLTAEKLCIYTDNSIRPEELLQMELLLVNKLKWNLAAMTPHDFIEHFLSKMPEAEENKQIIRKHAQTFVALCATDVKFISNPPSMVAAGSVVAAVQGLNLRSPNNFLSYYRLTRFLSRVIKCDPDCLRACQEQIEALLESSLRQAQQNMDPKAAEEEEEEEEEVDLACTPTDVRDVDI

[9] = target: Cyclin-dependent kinase 7/ cyclin H (Homo sapiens, UniProt P50613); assay: Inhibition of CDK7/cyclin H; format: protein-complex assay
Cyclin-dependent kinase 7/ cyclin H, sequence (P51946 whole entry): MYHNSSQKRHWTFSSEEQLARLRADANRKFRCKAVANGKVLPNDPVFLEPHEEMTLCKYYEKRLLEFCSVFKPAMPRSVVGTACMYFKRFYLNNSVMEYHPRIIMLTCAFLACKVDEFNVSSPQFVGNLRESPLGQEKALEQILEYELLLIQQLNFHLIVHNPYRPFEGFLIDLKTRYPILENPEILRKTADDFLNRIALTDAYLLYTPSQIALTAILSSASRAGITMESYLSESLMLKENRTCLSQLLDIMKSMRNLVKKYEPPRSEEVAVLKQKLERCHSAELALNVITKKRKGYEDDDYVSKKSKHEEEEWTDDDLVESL
Cyclin-dependent kinase 7/ cyclin H, sequence (P50613 whole entry): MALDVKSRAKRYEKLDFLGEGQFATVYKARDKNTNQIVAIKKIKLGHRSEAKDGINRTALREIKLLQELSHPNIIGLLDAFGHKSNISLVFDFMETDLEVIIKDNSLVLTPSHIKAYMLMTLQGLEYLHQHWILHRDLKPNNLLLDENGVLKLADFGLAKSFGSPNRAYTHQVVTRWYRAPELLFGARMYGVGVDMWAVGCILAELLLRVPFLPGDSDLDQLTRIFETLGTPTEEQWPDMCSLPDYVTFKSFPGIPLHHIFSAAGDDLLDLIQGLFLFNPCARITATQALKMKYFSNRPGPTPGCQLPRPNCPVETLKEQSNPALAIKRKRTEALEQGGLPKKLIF

[10] = Inhibition of PKA
A2780 [11] = assay: Growth inhibition of cisplatin-susceptible human A2780 cells after 96 hrs by sulforhodamine B assay; format: functional; details: A2780, 96 h
A2780 [12] = assay: Growth inhibition of cisplatin-resistant human A2780 cells after 96 hrs by sulforhodamine B assay; format: functional; details: A2780, 96 h
CH1 [13] = assay: Growth inhibition of doxorubicin-susceptible human CH1 cells after 96 hrs by sulforhodamine B assay; format: functional; details: CH1, 96 h
CH1 [14] = assay: Growth inhibition of doxorubicin-resistant human CH1 cells after 96 hrs by sulforhodamine B assay; format: functional; details: CH1, 96 h
HCT-116 [15] = assay: Growth inhibition of human HCT116 cells after 96 hrs by sulforhodamine B assay; format: functional; details: HCT-116, 96 h
HT-29 [16] = assay: Growth inhibition of human HT-29 cells after 96 hrs by sulforhodamine B assay; format: functional; details: HT-29, 96 h
KM12 = assay: Growth inhibition of human KM12 cells after 96 hrs by sulforhodamine B assay; format: functional; details: KM12, 96 h
[17] = Metabolic stability in mouse liver microsomes assessed as compound metabolized at 10 uM after 30 mins by LC-MS analysis; format: ADME, Microsome; details: read-out: Activity
CDK9/cyclin T1 = CDK9/cyclin T1 (Homo sapiens, UniProt P50750); assay: Inhibition of CDK9/cyclin T1; format: protein-complex assay
CDK9/cyclin T1, sequence (O60563 whole entry): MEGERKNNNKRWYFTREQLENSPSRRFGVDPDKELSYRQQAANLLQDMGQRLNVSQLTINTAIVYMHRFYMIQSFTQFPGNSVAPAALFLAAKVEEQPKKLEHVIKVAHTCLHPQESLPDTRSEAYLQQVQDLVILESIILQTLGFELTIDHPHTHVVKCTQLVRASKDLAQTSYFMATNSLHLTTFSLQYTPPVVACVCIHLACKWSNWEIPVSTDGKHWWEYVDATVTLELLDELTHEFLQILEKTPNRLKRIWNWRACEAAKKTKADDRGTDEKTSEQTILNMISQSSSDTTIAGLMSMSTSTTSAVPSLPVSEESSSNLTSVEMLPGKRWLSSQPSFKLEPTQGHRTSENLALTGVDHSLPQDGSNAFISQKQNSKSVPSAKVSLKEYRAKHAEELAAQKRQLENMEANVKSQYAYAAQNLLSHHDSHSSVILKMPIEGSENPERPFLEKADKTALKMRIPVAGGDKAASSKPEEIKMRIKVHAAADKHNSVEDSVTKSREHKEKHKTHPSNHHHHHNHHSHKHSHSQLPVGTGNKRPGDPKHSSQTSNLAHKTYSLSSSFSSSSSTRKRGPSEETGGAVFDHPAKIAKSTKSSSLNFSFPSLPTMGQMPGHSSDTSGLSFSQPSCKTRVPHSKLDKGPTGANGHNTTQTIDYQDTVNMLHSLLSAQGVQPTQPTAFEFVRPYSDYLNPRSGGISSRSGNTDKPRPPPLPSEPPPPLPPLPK
CDK9/cyclin T1, sequence (P50750 whole entry): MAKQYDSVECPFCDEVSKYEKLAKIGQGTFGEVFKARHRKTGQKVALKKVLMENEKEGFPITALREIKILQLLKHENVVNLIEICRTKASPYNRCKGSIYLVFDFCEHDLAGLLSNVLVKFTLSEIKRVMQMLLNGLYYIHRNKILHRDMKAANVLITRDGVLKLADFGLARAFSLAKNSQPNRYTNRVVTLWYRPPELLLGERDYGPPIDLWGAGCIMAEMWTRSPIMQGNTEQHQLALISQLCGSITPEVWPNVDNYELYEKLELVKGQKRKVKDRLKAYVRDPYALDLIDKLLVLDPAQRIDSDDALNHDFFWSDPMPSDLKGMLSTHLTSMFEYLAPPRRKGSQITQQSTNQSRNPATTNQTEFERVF

[18] = Solubility of the compound in water; format: physicochemical; details: buffer
[19] = Cmax in BALB/c mouse plasma at 50 mg/kg, iv after 24 hrs by LC-MS analysis; format: ADME, organism-based; set-up: dose 50 mg/kg, route intravenous
[20] = AUC in BALB/c mouse plasma at 50 mg/kg, iv after 24 hrs by LC-MS analysis; format: ADME, organism-based; set-up: time < 24 hr, dose 50 mg/kg, route intravenous
[21] = Half life in BALB/c mouse plasma at 50 mg/kg, iv by LC-MS analysis; format: ADME, organism-based; set-up: dose 50 mg/kg, route intravenous
[22] = Volume of distribution in BALB/c mouse plasma at 50 mg/kg, iv after 24 hrs by LC-MS analysis; format: ADME, organism-based; set-up: dose 50 mg/kg, route intravenous
[23] = Clearance in BALB/c mouse plasma at 50 mg/kg, iv after 24 hrs by LC-MS analysis; format: ADME, organism-based; set-up: dose 50 mg/kg, route intravenous
Mus musculus = assay: Ratio of Seliciclib clearance to compound clearance in BALB/c mouse plasma at 50 mg/kg, iv after 24 hrs by LC-MS analysis; format: ADME, organism-based; set-up: dose 50 mg/kg, route intravenous; details: in vivo
[24] = Oral bioavailability in BALB/c mouse at 50 mg/kg by LC-MS analysis; format: ADME, organism-based; details: in vivo
HCT-116 [25] = assay: Antitumor activity against human HCT116 cells xenografted in NCR athymic mouse assessed as reduction in tumor volume at 50 mg/kg, po twice daily at 12 to 14 hrs intervals measured after 12 days relative to vehicle treated control; format: functional; set-up: scale not given: the % may be the effect or the level left

pIC50 [6]	pIC50 [7]	pIC50 [8]	pIC50 [9]	pIC50 [10]	GI50 (A2780 [11]) [µM]	GI50 (A2780 [12]) [µM]	GI50 (HCT-116 [15]) [µM]	GI50 (HT-29 [16]) [µM]	metabolised at 0.5 h, 10 µM [17] [%]	solubility [18]	Cmax [19] [µM]	AUC at 24 h [20] [µM·h]	half-life [21] [min]	Vd [22] [L]	clearance [23] [mL/min]	bioavailability [24] [%]	SMILES	GI50 (CH1 [13]) [µM]	GI50 (CH1 [14]) [µM]	GI50 (KM12) [µM]	also measured
																	CC[C@H](Nc1nc(NCc2cccnc2)c2ncn(C(C)C)c2n1)[C@@H](C)O [listing 1 of 2 here]				Activity (HCT-116 [1]): Active; inhibition (HT-29 [2]): Active; Activity (HT-29 [3]): Active; Activity (HT-29 [4]): Active; Activity (HT-29 [5]): Active
6.70	5.21	5.12	5.51	< 3.70	10	21	13	19	16	soluble	275	223	36	0.01	0.2	15	CC[C@@H](Nc1nc(NCc2cccnc2)c2ncn(C(C)C)c2n1)C(C)(C)O	20	21	13	pIC50 (CDK9/cyclin T1): 6.68; Ratio (Mus musculus): 2
										soluble	268	298	168	0.013	0.15	15	CC[C@H](Nc1nc(NCc2cccnc2)c2ncn(C(C)C)c2n1)[C@@H](C)O [listing 2 of 2 here]				Activity (HCT-116 [25]): 49%
7.15	5.36	4.92	5.60	< 3.70	4	5.8	4.1	5.4	22	soluble	215	109	24	0.012	0.4	15	CC[C@H](Nc1nc(NCc2cccnc2)c2ncn(C(C)C)c2n1)C(C)(C)O	5	6.8	5.4	pIC50 (CDK9/cyclin T1): 6.80; Ratio (Mus musculus): 2
